Test results as given in patent US11213514B2, “Alpha-1-adrenergic receptor agonist therapy” (The Regents of the University of California, priority 2016, dated 2022).

System: ERK
Test: ERK activation in neonatal rat ventricular myocytes (pERK/ERK Western blot)
Assay type: cell-based
Conditions: NRVMs, norepinephrine 1 μM in the presence of propranolol 1 μM
Excerpt: FIGS. 4A-4F. […] The reaction was stopped immediately and lysates were blotted for total and phospho-ERK (pERK). FIG. 4A. Representative Western blot. FIG. 4B. […] FIG. 4C. Summary of pERK/ERK for experiments using 5 different NRVM isolations. The average pERK/ERK ratio for each experiment was derived from at least 2 individual wells and normalized to the pERK/ERK ratio for vehicle treated NRVMs. FIG. 4D and FIG. 4E. […] Heart lysates were blotted for pERK and ERK. Results were compared using one way ANOVA with Tukey post-test. FIG. 4F.
Dabuzalgron protects neonatal rat ventricular myocytes from cell death due to doxorubicin. […] (FIG. 4C).
Female Sprague-Dawley rats were from Charles River. NRVMs were isolated as previously described.7 Briefly, hearts from 1-2 day old rat pups were minced, digested serially in collagenase (Worthington)-containing solution, filtered, then pre-plated to exclude non-myocyotes. NRVMs were then plated on laminin-coated dishes in DMEM with 5% fetal bovine serum (Sigma F2442) for 24 hours. Experiments were carried out after 36-96 hours of serum starvation in the presence of insulin, transferrin, and BrdU. […]
All results are presented as mean±SEM. […] EC50 for ERK activation was calculated using sigmoidal dose-response analysis (Prism).

Compound: NC[C@H](O)c1ccc(O)c(O)c1 [norepinephrine]
- increase of pERK/ERK ratio: roughly 1.5 fold
